Measurements as given in publication PMC6934184, “Selective DNA-PKcs inhibition extends the therapeutic index of localized radiotherapy and chemotherapy” (The Journal of Clinical Investigation, 2019).

Target: T1, PDGFRB (PDGFR beta) (Homo sapiens, UniProt P09619)
T1 construct: purchased Thermo Fisher Scientific (Life Technologies) SelectScreen
Experiment: SelectScreen Z'LYTE
Assay type: biochemical
How it was run: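 Percent values come from Thermo SelectScreen profiling of NU5455, combining activity and binding assays. CSF1R was run in Z'LYTE format at Km app ATP, and CAMK1 in Adapta format with ATP listed at 10.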

T1 sequence (P09619 33-1106): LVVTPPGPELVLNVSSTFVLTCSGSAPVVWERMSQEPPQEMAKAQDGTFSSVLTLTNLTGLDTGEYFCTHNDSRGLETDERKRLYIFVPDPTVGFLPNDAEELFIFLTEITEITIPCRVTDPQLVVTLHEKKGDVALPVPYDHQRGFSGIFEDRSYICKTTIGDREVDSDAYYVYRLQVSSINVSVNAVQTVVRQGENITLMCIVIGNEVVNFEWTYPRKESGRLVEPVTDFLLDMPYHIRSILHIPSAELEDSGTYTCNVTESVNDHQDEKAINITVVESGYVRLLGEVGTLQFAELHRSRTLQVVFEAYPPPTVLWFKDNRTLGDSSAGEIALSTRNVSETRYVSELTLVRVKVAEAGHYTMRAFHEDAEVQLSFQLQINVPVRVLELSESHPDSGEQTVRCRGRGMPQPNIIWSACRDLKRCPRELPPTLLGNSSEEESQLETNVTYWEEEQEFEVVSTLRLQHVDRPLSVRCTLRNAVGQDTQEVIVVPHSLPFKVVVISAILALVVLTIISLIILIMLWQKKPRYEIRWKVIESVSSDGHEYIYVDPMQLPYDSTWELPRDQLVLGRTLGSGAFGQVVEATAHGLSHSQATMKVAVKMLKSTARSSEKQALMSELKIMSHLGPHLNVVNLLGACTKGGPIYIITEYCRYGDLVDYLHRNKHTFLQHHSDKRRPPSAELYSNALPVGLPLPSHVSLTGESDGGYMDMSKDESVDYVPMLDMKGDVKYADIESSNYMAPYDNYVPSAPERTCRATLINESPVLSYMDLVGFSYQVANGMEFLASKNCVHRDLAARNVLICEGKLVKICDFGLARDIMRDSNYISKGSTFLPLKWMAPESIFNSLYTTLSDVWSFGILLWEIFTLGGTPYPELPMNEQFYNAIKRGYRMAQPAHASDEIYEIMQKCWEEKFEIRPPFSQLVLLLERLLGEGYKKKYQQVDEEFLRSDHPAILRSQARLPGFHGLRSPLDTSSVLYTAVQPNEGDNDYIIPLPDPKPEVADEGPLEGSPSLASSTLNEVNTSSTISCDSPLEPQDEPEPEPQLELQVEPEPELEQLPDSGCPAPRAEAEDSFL

Work on `CN(C(=O)CN1CCOCC1)c1ccc2sc3c(-c4cccc5c(=O)cc(N6CC7CCC(C6)O7)oc45)cccc3c2c1` [NU5455] yielded an inhibition at 1 µM of 11%.
